This passage reports IC50 and solubility results from ChEMBL document CHEMBL4152332, “Discovery and synthesis of novel magnolol derivatives with potent anticancer activity in non-small cell lung cancer” (Eur J Med Chem, 2018).

As usually defined, the IC50 is the midpoint of a concentration-inhibition curve. A high value points to lower potency. As a reminder, the solubility is how much of the substance goes into solution per volume.

The subject of data set [1] is NCI-H460. Description: Antiproliferative activity against human H460 cells after 72 hrs by MTT assay. The note with it: NCI-H460, 72 h. The class given is functional, cell-based. (In general: Tetrazolium assays rely on reduction of a dye to a coloured formazan, in cell work by metabolically active cells.)
Data set [2] deals with HCC827. Put plainly: Antiproliferative activity against human HCC827 cells after 72 hrs by MTT assay. The class given is functional, cell-based. The note with it: HCC827, 72 h.
Data set [3] has as its system NCI-H1975. Put plainly: Antiproliferative activity against human NCI-H1975 cells after 72 hrs by MTT assay. The class given is functional, cell-based. The note with it: NCI-H1975, 72 h.
Data set [4] concerns A549. Description: Antiproliferative activity against human A549 cells after 72 hrs by MTT assay. The class given is functional, cell-based. The note with it: A549, 72 h.
Data set [5] relates to NCI-H358. Put plainly: Antiproliferative activity against human NCI-H358 cells after 72 hrs by MTT assay. The class given is functional, cell-based. The note with it: NCI-H358, 72 h.
Data set [6] in a line: Apparent aqueous solubility of the compound by HPLC analysis. As to conditions: aqueous solution. The class given is physicochemical.
For data set [7], the system named is PC-9. Description: Antiproliferative activity against human PC9 cells after 72 hrs by MTT assay. The class given is functional, cell-based. As to conditions: PC-9, 72 h.
The test system of data set [8] is NCI-H1650. Put plainly: Antiproliferative activity against human NCI-H1650 cells after 72 hrs by MTT assay. As to conditions: NCI-H1650, 72 h. The class given is functional, cell-based.
Data set [9] concerns NCI-H441. Description: Antiproliferative activity against human H441 cells after 72 hrs by MTT assay. The class given is functional, cell-based. As to conditions: NCI-H441, 72 h.
A short description of data set [10]: Antiproliferative activity against human SPC-A1 cells after 72 hrs by MTT assay. The class given is functional, cell-based. The note with it: SPCA1, 72 h.

Regarding `C=CCc1ccc(O)c(-c2cc(CC=C)cc(CN3CCC(C(=O)OCC)CC3)c2O)c1`, the IC50 in [1], in [2] and in data set [3] was more than 20 µM throughout.
As to `C=CCc1ccc(O)c(-c2cc(CC=C)cc(CN3CCC(CNC(=O)OC(C)(C)C)CC3)c2O)c1`, the IC50 in data set [1], in data set [2] and in data set [3] was more than 20 µM each time.
Take `C=CCc1cc(-c2cc(C(=O)O)ccc2O)ccc1O`: the IC50 in data set [1], in data set [2] and in [3] was more than 40 µM throughout.
Consider `C=CCc1ccc(O)c(-c2cc(CC=C)cc(CN3CCN(C(C)C)CC3)c2O)c1`, for which the IC50 in [1], in [2] and in [3] was more than 20 µM each time.
On to `C=CCc1ccc(O)c(-c2cc(CC=C)cc(CN3CCCCC3)c2O)c1`, for which the IC50 in data set [1], in [2] and in data set [3] was more than 20 µM throughout.
For the molecule `C=CCc1ccc(O)c(-c2cc(CC=C)cc(CN3CCCC(NC(=O)OC(C)(C)C)C3)c2O)c1` (centres undefined), the IC50 in data set [1] was 16.4 µM; in data set [2], 15.5 µM; in data set [3], 13.9 µM.
Take `C=CCc1cc(-c2cc(/C=C/CO)ccc2O)c(O)c([C@@H]2C=C(C)CC[C@H]2C(C)C)c1`: the IC50 in data set [1], in [2] and in data set [3] was more than 40 µM in each case.
As for `C=CCc1cc(-c2cc(/C=C/CO)ccc2O)ccc1O`, the IC50 in data set [1] stood at 31.6 µM; in [2], 33.6 µM; in data set [3], 34.5 µM.
On the same counts, the results for `OCC(O)Cc1ccc(O)c(-c2cc(CC(O)CO)ccc2O)c1` (centres undefined) are more than 40 µM, more than 40 µM and more than 40 µM.
On the same counts, the results for `C=CCc1cc(-c2cc(O)ccc2O)ccc1O` [MAGNATRIOL B] are more than 40 µM, more than 40 µM and more than 40 µM.
In the case of `C=CCc1ccc(O)c(-c2cc(CC=C)cc(CN3CCN(C(=O)N(C)C)CC3)c2O)c1`, the IC50 in data set [1], in [2] and in data set [3] was more than 20 µM throughout.
Turning to `C=CCc1cc(-c2ccc(O)c(CC=C)c2)c(O)c([C@@H]2C=C(C)CC[C@H]2C(C)C)c1`, the IC50 was 27.6 µM in data set [1], 31.4 µM in data set [2] and 26.7 µM in [3].
On the same counts, the results for `C=CCc1ccc(O)c(-c2ccc(O)c(/C=C/C)c2)c1` are 25.3 µM, 26.4 µM and 25.8 µM.
On the same counts, the results for `C=CCc1cc(-c2cc(C=O)ccc2O)ccc1O` [MAGNALEDEHYDE E] are more than 40 µM, more than 40 µM and more than 40 µM.
On the same counts, the results for `C=CCc1ccc(O)c(-c2cc(CC=C)cc(CN3CCC(CN)CC3)c2O)c1` are more than 20 µM, more than 20 µM and more than 20 µM.
Take `C=CCc1ccc(O)c(-c2cc(CC=C)cc(CN3CCN(CCCO)CC3)c2O)c1`: the IC50 in [1], in data set [2] and in [3] was more than 20 µM in each case.
For `C=CCc1ccc(O)c(-c2cc(CC=C)ccc2O)c1` [MAGNOLOL], the IC50 is more than 40 µM in data set [1]; 57.4 µM in data set [4]; 61.2 µM in data set [5]; more than 40 µM in data set [2]; 69 µM in data set [7]; 56.6 µM in data set [8]. The IC50 in data set [9] was 58.7 µM; in data set [10] it was 78.2 µM; in data set [3], more than 40 µM. Also, the solubility in data set [6] is less than 10 µg/mL.
Consider `C=CCc1ccc(O)c(-c2cc(CC=C)cc(CN3CCN(C=O)CC3)c2O)c1`, for which the IC50 in data set [1], in [2] and in data set [3] was more than 20 µM throughout.
`C=CCc1ccc(O)c(-c2cc(CC=C)cc(CN3CCN(C(C)=O)CC3)c2O)c1`: the IC50 in [1], in data set [2] and in data set [3] was more than 20 µM each time.
Turning to `C=CCc1ccc(O)c(-c2cc(CC=C)cc(CN3CCC(NC(=O)OC(C)(C)C)CC3)c2O)c1`, the IC50 in data set [1] was 17.5 µM; in [2], 12.9 µM; in data set [3] it was 15.8 µM.
On the same counts, the results for `C=CCc1ccc(O)c(-c2cc(CC=C)cc(CN3CCNCC3)c2O)c1` are more than 20 µM, more than 20 µM and more than 20 µM.
On the same counts, the results for `C=CCc1ccc(O)c(-c2ccc(O)c(CC3CO3)c2)c1` (centres undefined) are more than 40 µM, more than 40 µM and more than 40 µM.
As for `C=CCc1cc(-c2cc(CC(O)CO)ccc2O)ccc1O` (centres undefined) [MAGNOLIGNAN], the IC50 in data set [1], in data set [2] and in data set [3] was more than 40 µM each time.
`C=CCc1ccc(O)c(-c2ccc(O)c(CC(O)CO)c2)c1` (centres undefined): the IC50 in data set [1], in [2] and in [3] was more than 40 µM throughout.
With `C=CCc1cc(-c2cc(/C=C/C=O)ccc2O)ccc1O` [MAGNALEDEHYDE B], the IC50 turned out to be 32.4 µM in data set [1], 35.5 µM in data set [2] and 34.1 µM in data set [3].
Take `C=CCc1ccc(O)c(-c2cc(CC=C)cc(CN3CCN(CCO)CC3)c2O)c1`: the IC50 in [1] was 17.4 µM; in data set [2] it was 18.9 µM; in data set [3] it was 16.5 µM.
For `C=CCc1ccc(O)c(-c2cc(CC=C)cc(CN3CCOCC3)c2O)c1`, in that order: more than 20 µM, more than 20 µM and more than 20 µM.
`C=CCc1ccc(O)c(-c2cc(CC(O)CO)ccc2O)c1` (centres undefined): the IC50 in data set [1], in data set [2] and in data set [3] was more than 40 µM each time.
As for `C=CCc1ccc(O)c(-c2cc(CC=C)cc(CN3CCCC(CO)C3)c2O)c1` (centres undefined), the IC50 in [1], in [2] and in data set [3] was more than 20 µM each time.
Consider `C=CCc1ccc(O)c(-c2cc(/C=C/CO)ccc2O)c1`, for which the IC50 in data set [1], in [2] and in [3] was more than 40 µM in each case.
Regarding `C=CCc1ccc(O)c(-c2cc(CC=C)cc(CN3CCC(NC(=O)C=C)CC3)c2O)c1`, the IC50 in data set [1], in [2] and in data set [3] was more than 20 µM throughout.
With `C=CCc1cc(-c2cc(CC=C)cc([C@@H]3C=C(C)CC[C@H]3C(C)C)c2O)c(O)c([C@@H]2C=C(C)CC[C@H]2C(C)C)c1`, the IC50 in data set [1], in data set [2] and in data set [3] was more than 40 µM each time.
Take `C=CCc1ccc(O)c(-c2cc(CC=C)cc(CN3CCN(C(=O)C4CC4)CC3)c2O)c1`: the IC50 in data set [1], in data set [2] and in data set [3] was more than 20 µM in each case.
`C=CCc1ccc(O)c(-c2cc(CC=C)cc(CN3CCCC(C)C3)c2O)c1` (centres undefined): the IC50 in [1], in data set [2] and in data set [3] was more than 20 µM each time.
For the molecule `C=CCc1ccc(O)c(-c2cc(O)ccc2O)c1` [RANDAIOL], the IC50 in data set [1], in [2] and in data set [3] was more than 40 µM in each case.
For `C=CCc1ccc(O)c(-c2cc(CC=C)cc(CN3CCN(C)CC3)c2O)c1`, the IC50 in data set [1], in data set [2] and in data set [3] was more than 20 µM each time.
As to `C=CCc1ccc(O)c(-c2cc(CC=C)cc(CN3CCN(c4ccccc4)CC3)c2O)c1`, the IC50 in data set [1], in data set [2] and in data set [3] was more than 20 µM each time.
For the molecule `C=CCc1ccc(O)c(-c2cc(CC=C)cc(CN3CCN(Cc4ccccc4)CC3)c2O)c1`, the IC50 in data set [1], in [2] and in data set [3] was more than 20 µM throughout.
Turning to `C=CCc1ccc(O)c(-c2cc(CC=C)cc(CN3CCN(CCCC)CC3)c2O)c1`, the IC50 in [1], in [2] and in data set [3] was more than 20 µM in each case.
`C=CCc1ccc(O)c(-c2cc(CC=C)cc(CN3CCN(CC=C)CC3)c2O)c1`: the IC50 in data set [1], in data set [2] and in data set [3] was more than 20 µM in each case.
For the molecule `C=CCc1ccc(O)c(-c2cc(CC=C)cc(CN3CCSCC3)c2O)c1`, the IC50 in data set [1], in data set [2] and in data set [3] was more than 20 µM each time.
For `C=CCc1ccc(O)c(-c2cc(CC=C)cc(CN3CCN(C(=O)OC(C)(C)C)CC3)c2O)c1`, the IC50 in [1], in data set [2] and in [3] was more than 20 µM in each case.
In the case of `C=CCc1ccc(O)c(-c2cc(CC=C)cc(CN3CCCC(NC(=O)C=C)C3)c2O)c1` (centres undefined), the IC50 in data set [1], in [2] and in data set [3] was more than 20 µM throughout.
With `C=CCc1ccc(O)c(-c2cc(CC=C)cc([C@@H]3C=C(C)CC[C@H]3C(C)C)c2O)c1`, the IC50 in data set [1] was 18.6 µM; in data set [2] it was 15.8 µM; in data set [3] it was 16.6 µM. For the same molecule, the solubility in data set [6] was less than 10 µg/mL.
In the case of `C=CCc1ccc(O)c(-c2cc(C(=O)O)ccc2O)c1`, the IC50 in data set [1], in data set [2] and in [3] was more than 40 µM each time.
As for `C=CCc1ccc(O)c(-c2cc(CC=C)cc(CN3CCCC(C(=O)OCC)C3)c2O)c1` (centres undefined), the IC50 in [1], in data set [2] and in data set [3] was more than 20 µM each time.
Consider `C=CCc1ccc(O)c(-c2cc(CC=C)cc(CN3CCN(C(=O)OCC)CC3)c2O)c1`, for which the IC50 in data set [1], in data set [2] and in data set [3] was more than 20 µM throughout.
